Reference: patent US10422788B2, “Profiling peptides and methods for sensitivity profiling” (Tolero Pharmaceuticals, Inc., priority 2016, dated 2019)

Experiments:
[1] = test system: MOLM-13 cells; assay: Addition of ryanodine to the Example 5 assay; assay type: cell-based; conditions: 20 nM Ryanodine; Tat-mediated calcium release from the ER; FIG. 4
[2] = test system: OCI-AML3; conditions: published NOXA test results; cited from earlier work
[3] = test system: MV4-11; conditions: published NOXA test results; cited from earlier work
[4] = test system: MOLM-13; conditions: published NOXA test results; cited from earlier work
[5] = test system: KG-1; conditions: published NOXA test results; cited from earlier work
[6] = test system: subject samples; assay: Reference Lab NOXA priming assay on subject samples; assay type: cell-based, human
[7] = test system: THP-1; conditions: published NOXA test results; cited from earlier work
[8] = test system: HL-60; conditions: published NOXA test results; cited from earlier work
[9] = test system: U-937; conditions: published NOXA test results; cited from earlier work
[10] = test system: MOLM-13 cells; assay: Whole cell assay, JC-1 mitochondrial potential, cells lacking digitonin (FIG. 1B); assay type: cell-based; conditions: 100 μM peptide, no digitonin
Protocol: Briefly, frozen MOLM-13 and OCI-AML3 cell stocks were rapidly thawed, and cell viability was determined by Trypan Blue exclusion. Cells were washed in PBS and resuspended in DTEB (or MEB) buffer (135 mM Trehalose [or 150 mM Mannitol], 10 mM HEPES, 50 mM KCl, 20 μMI EGTA, 20 μM EDTA, 0.1% BSA, and 5 mM succinate). The profiling peptides and NOXA ([…]; SEQ ID NO:16) were reconstituted in water to make working solutions allowing for final concentrations of: SEQ ID NO:1 (100 μM), SEQ ID NO:14 (100 μM), SEQ ID NO:15 (100 μM), and NOXA (100 μM). […] Profiling peptides, controls, or NOXA (for comparison purposes) were first added to a microplate. Cells (4×10^5) resuspended in DTEB or MEB buffers were then added to a staining solution ([…], 40 μM JC-1, 1 M 2-mercaptoethanol, DTEB or MEB buffer), before being added to the wells of the microplate in the above (for non-digitonin-treated samples, digitonin was not added to the staining solution above). The mixture was then incubated for up to 2 hours at 30° C., in order for cell permeabilization (if needed), delivery of peptides or compounds, and mitochondrial depolarization to occur. Fluorescence signal of each well was assessed using an Envision multilabel plate reader at Ex475/Em530 and Ex530/Em595. […]

[11] = test system: OCI-AML3 cells; assay: Titration of concentrations of profiling peptides, Mcl-1 dependency percentage (JC-1); assay type: cell-based; conditions: profiling peptide at 10 μM; FIG. 2
Protocol: Briefly, frozen OCI-AML3 cell stocks were rapidly thawed, and cell viability was determined by Trypan Blue exclusion. Cells were washed in PBS and resuspended in DTEB (or MEB) buffer (135 mM Trehalose [or 150 mM Mannitol], 10 mM HEPES, 50 mM KCl, 20 μM EGTA, 20 μM EDTA, 0.1% BSA, 5 mM succinate). The profiling peptides and NOXA (SEQ ID NO:16) were reconstituted in water to make working solutions allowing for final concentrations of: SEQ ID NO:1 (100 μM), SEQ ID NO:1 (30 μM), SEQ ID NO:1 (10 μM), and NOXA (100 μM). […] Profiling peptides, controls, or NOXA (for comparison purposes) were first added to a microplate. […] Fluorescence signal of each well was assessed using an Envision multilabel plate reader at Ex475/Em530 and Ex530/Em595.
Statistical Analysis: For each peptide, the Mcl-1 dependency percentage was calculated using the following formula that determines the dependency:
[formula] Where PC is the fluorescence intensity of the positive control, NC is the fluorescence intensity of the negative control, and Pep is the fluorescence intensity of the peptide at the noted concentration.

[12] = Sample # 17, subject treated with FLAM, complete response
[13] = Sample # 18, subject treated with FLAM, complete response
[14] = Sample # 19, subject treated with FLAM, complete response

Substance: ryanodine
- nonspecific dye uptake [1]: prevented nonspecific dye uptake

Substance: AELPPEFAAQLRKIGDKVYC (NOXA sequence) [standard NOXA BH3 peptide, used for comparison]
- NOXA Priming % [2]: 21.96%
- NOXA Priming % [3]: 12.84%
- NOXA Priming % [4]: 19.24%
- NOXA Priming % [5]: 12.39%
- Reference Lab NOXA Priming % ([6]; Sample # 1): 14.0%
- Reference Lab NOXA Result (Pos/Neg) ([6]; Sample # 1): Neg (Concordance based on cutoff of ≥40% MCL-1 Dependency for both methods.)
- Reference Lab NOXA Priming % ([6]; Sample # 2): 60.0%
- Reference Lab NOXA Result (Pos/Neg) ([6]; Sample # 2): Pos (Concordance based on cutoff of ≥40% MCL-1 Dependency for both methods.)
- Reference Lab NOXA Priming % ([6]; Sample # 3): 16.0%
- Reference Lab NOXA Result (Pos/Neg) ([6]; Sample # 3): Neg (Concordance based on cutoff of ≥40% MCL-1 Dependency for both methods.)
- Reference Lab NOXA Priming % ([6]; Sample # 4): 0.0%
- Reference Lab NOXA Result (Pos/Neg) ([6]; Sample # 4): Neg (Concordance based on cutoff of ≥40% MCL-1 Dependency for both methods.)
- Reference Lab NOXA Priming % ([6]; Sample # 5): 94.4%
- Reference Lab NOXA Result (Pos/Neg) ([6]; Sample # 5): Pos (Concordance based on cutoff of ≥40% MCL-1 Dependency for both methods.)
- Reference Lab NOXA Priming % ([6]; Sample # 6): 48.6%
- Reference Lab NOXA Result (Pos/Neg) ([6]; Sample # 6): Pos (Concordance based on cutoff of ≥40% MCL-1 Dependency for both methods.)
- Reference Lab NOXA Priming % ([6]; Sample # 7): 0.0%
- Reference Lab NOXA Result (Pos/Neg) ([6]; Sample # 7): Neg (Concordance based on cutoff of ≥40% MCL-1 Dependency for both methods.)
- Reference Lab NOXA Priming % ([6]; Sample # 8): 23.5%
- Reference Lab NOXA Result (Pos/Neg) ([6]; Sample # 8): Neg (Concordance based on cutoff of ≥40% MCL-1 Dependency for both methods.)
- Reference Lab NOXA Priming % ([6]; Sample # 9): 79.1%
- Reference Lab NOXA Result (Pos/Neg) ([6]; Sample # 9): Pos (Concordance based on cutoff of ≥40% MCL-1 Dependency for both methods.)
- Reference Lab NOXA Priming % ([6]; Sample # 10): 38.0%
- Reference Lab NOXA Result (Pos/Neg) ([6]; Sample # 10): Neg (Concordance based on cutoff of ≥40% MCL-1 Dependency for both methods.)
- Reference Lab NOXA Priming % ([6]; Sample # 11): 43.3%
- Reference Lab NOXA Result (Pos/Neg) ([6]; Sample # 11): Pos (Concordance based on cutoff of ≥40% MCL-1 Dependency for both methods.)
- Reference Lab NOXA Priming % ([6]; Sample # 12): 0.0%
- Reference Lab NOXA Result (Pos/Neg) ([6]; Sample # 12): Neg (Concordance based on cutoff of ≥40% MCL-1 Dependency for both methods.)
- Reference Lab NOXA Priming % ([6]; Sample # 13): 0.0%
- Reference Lab NOXA Result (Pos/Neg) ([6]; Sample # 13): Neg (Concordance based on cutoff of ≥40% MCL-1 Dependency for both methods.)
- Reference Lab NOXA Priming % ([6]; Sample # 14): 0.0%
- Reference Lab NOXA Result (Pos/Neg) ([6]; Sample # 14): Neg (Concordance based on cutoff of ≥40% MCL-1 Dependency for both methods.)
- Reference Lab NOXA Priming % ([6]; Sample # 15): 7.0%
- Reference Lab NOXA Result (Pos/Neg) ([6]; Sample # 15): Neg (Concordance based on cutoff of ≥40% MCL-1 Dependency for both methods.)
- Reference Lab NOXA Priming % ([6]; Sample # 16): 7.0%
- Reference Lab NOXA Result (Pos/Neg) ([6]; Sample # 16): Neg (Concordance based on cutoff of ≥40% MCL-1 Dependency for both methods.)
- Reference Lab NOXA Priming % [6, 12]: 10.89%
- Reference Lab NOXA Result (Pos/Neg) [6, 12]: Neg (Concordance based on cutoff of ≥40% MCL-1 Dependency for both methods.)
- Reference Lab NOXA Priming % [6, 13]: 14.43%
- Reference Lab NOXA Result (Pos/Neg) [6, 13]: Neg (Concordance based on cutoff of ≥40% MCL-1 Dependency for both methods.)
- Reference Lab NOXA Priming % [6, 14]: 0.0%
- Reference Lab NOXA Result (Pos/Neg) [6, 14]: Neg (Concordance based on cutoff of ≥40% MCL-1 Dependency for both methods.)
- NOXA Priming % [7]: 11.28%
- NOXA Priming % [8]: 7.60%
- NOXA Priming % [9]: 24.35%

Substance: RPEIWMTQGLRRLGDEINAYYARGGGYGRKKRRQRRR (profiling peptide sequence) [SEQ ID NO:15]
- activity compared to the positive control (FCCP) [10]: exceeded the activity of the positive control

Substance: RPEIWMTQGLRRLGDEINAYYAR (Exemplary Mcl-1 Binding Domain sequence) [SEQ ID NO:1]
- Mcl-1 dependency percentage compared to NOXA at 100 μM [11]: comparable value
